{"source": "ChEMBL document CHEMBL6083277", "about": "“Discovery of SZJK-0421: A Novel Potent, Low Toxicity, Selective Second Generation of CRM1 Inhibitor for the Treatment of Both Hematological and Solid Tumors” (J Med Chem, 2024)", "key": {"[1]": {"biological_target": "T1, Ran-specific GTPase-activating protein (Homo sapiens, UniProt P43487)", "T1 sequence (P43487 whole entry)": "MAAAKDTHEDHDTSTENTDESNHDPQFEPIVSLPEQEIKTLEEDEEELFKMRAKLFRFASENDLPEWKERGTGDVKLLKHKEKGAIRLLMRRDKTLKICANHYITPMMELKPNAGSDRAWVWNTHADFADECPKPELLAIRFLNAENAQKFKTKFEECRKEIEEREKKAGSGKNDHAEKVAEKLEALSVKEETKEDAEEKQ", "assay": "Inhibition of RANBP1 nuclear export in human U2OS cells assessed as increase in fluorescence intensity measured for 15 mins by DAPI staining based fluorescence microscopic analysis", "format": "cell-based"}, "BXPC-3": {"tested_on": "BXPC-3", "assay": "Antiproliferative activity against human BXPC-3 cells assessed as inhibition of cell growth incubated for 72 hrs by celltiter-glo assay", "format": "functional, cell-based", "conditions": "BXPC-3, 72 h"}, "[2]": {"assay": "Toxicity in NOD-SCID mouse assessed as hyperplasia of crypt in intestine at 15 to 60 mg/kg, po measured every 2 days for 21 days by H and E staining based analysis", "format": "organism-based", "conditions": "in vivo, 504 h, dose 15-60 mg/kg, time 21 day"}, "AN3-CA": {"tested_on": "AN3-CA", "assay": "Antiproliferative activity against human AN3-CA cells assessed as inhibition of cell growth incubated for 72 hrs by celltiter-glo assay", "format": "functional, cell-based"}, "[3]": {"assay": "Metabolic stability in dog liver microsomes assessed as half life measured upto 60 mins in presence of NADPH by LC/MS-MS analysis", "format": "ADME, Canis lupus familiaris, Microsome"}, "MM1.S [4]": {"tested_on": "MM1.S", "assay": "Induction of apoptosis in human MM1.S cells assessed as increase in FOXO3A signal intensity", "format": "functional, cell-based"}, "[5]": {"biological_target": "T1, Ran-specific GTPase-activating protein", "assay": "Inhibition of RANBP1 nuclear export in human U2OS cells assessed as increase in fluorescence intensity at 100 uM measured for 15 mins by DAPI staining based fluorescence microscopic analysis", "format": "cell-based"}, "[6]": {"assay": "Toxicity in NOD-SCID mouse assessed as decrease in villus height to crypt depth ratio at 15 to 60 mg/kg, po measured every 2 days for 21 days by H and E staining based analysis", "format": "organism-based", "conditions": "in vivo, 504 h, dose 15-60 mg/kg, time 21 day"}, "[7]": {"assay": "Metabolic stability in dog liver microsomes assessed as intrinsic clearance measured upto 60 mins in presence of NADPH by LC/MS-MS analysis", "format": "ADME, Canis lupus familiaris, Microsome", "conditions": "read-out: CLH"}, "MM1.S [8]": {"tested_on": "MM1.S", "assay": "Inhibition of CRM1 protein expression in human MM1.S cells at 0.25 to 1.25 uM by Western blot analysis", "format": "functional, cell-based", "conditions": "dose 0.25-1.25 µM, time 2-24 hrs"}, "[9]": {"assay": "Toxicity in Sprague-Dawley rat at 30 mg/kg, po measured upto 48 hrs", "format": "organism-based", "conditions": "in vivo"}, "[10]": {"assay": "Toxicity in NOD-SCID mouse assessed as appearance of spindle shape in tumor at 60 mg/kg, po measured every 2 days for 21 days by H and E staining based analysis", "format": "organism-based", "conditions": "in vivo, 504 h, time 21 day"}, "LoVo": {"tested_on": "LoVo", "assay": "Antiproliferative activity against human LoVo cells assessed as inhibition of cell growth incubated for 72 hrs by celltiter-glo assay", "format": "functional, cell-based"}, "[11]": {"assay": "Toxicity in BALB/c mouse assessed as shortened intestine at 90 to 120 mg/kg, po administered once daily for 21 days", "format": "organism-based", "conditions": "in vivo, 504 h, dose 90-120 mg/kg, time 21 day"}, "[12]": {"assay": "Metabolic stability in monkey liver microsomes assessed as half life measured upto 60 mins in presence of NADPH by LC/MS-MS analysis", "format": "ADME, Macaca mulatta, Microsome", "conditions": "rhesus monkey"}, "HCT-116": {"tested_on": "HCT-116", "assay": "Antitumor activity against human HCT-116 cells xenografted in NOD-SCID mouse assessed as tumor growth inhibition at 60 mg/kg, po measured every 2 days for 21 days", "format": "functional, organism-based", "conditions": "time 21.0 day"}, "ARH-77": {"tested_on": "ARH-77", "assay": "Antiproliferative activity against human ARH-77 cells assessed as inhibition of cell growth incubated for 72 hrs by celltiter-glo assay", "format": "functional, cell-based", "conditions": "ARH-77, 72 h"}, "[13]": {"biological_target": "Exportin-1 (Homo sapiens) (UniProt O14980)", "sequence (O14980 whole entry)": "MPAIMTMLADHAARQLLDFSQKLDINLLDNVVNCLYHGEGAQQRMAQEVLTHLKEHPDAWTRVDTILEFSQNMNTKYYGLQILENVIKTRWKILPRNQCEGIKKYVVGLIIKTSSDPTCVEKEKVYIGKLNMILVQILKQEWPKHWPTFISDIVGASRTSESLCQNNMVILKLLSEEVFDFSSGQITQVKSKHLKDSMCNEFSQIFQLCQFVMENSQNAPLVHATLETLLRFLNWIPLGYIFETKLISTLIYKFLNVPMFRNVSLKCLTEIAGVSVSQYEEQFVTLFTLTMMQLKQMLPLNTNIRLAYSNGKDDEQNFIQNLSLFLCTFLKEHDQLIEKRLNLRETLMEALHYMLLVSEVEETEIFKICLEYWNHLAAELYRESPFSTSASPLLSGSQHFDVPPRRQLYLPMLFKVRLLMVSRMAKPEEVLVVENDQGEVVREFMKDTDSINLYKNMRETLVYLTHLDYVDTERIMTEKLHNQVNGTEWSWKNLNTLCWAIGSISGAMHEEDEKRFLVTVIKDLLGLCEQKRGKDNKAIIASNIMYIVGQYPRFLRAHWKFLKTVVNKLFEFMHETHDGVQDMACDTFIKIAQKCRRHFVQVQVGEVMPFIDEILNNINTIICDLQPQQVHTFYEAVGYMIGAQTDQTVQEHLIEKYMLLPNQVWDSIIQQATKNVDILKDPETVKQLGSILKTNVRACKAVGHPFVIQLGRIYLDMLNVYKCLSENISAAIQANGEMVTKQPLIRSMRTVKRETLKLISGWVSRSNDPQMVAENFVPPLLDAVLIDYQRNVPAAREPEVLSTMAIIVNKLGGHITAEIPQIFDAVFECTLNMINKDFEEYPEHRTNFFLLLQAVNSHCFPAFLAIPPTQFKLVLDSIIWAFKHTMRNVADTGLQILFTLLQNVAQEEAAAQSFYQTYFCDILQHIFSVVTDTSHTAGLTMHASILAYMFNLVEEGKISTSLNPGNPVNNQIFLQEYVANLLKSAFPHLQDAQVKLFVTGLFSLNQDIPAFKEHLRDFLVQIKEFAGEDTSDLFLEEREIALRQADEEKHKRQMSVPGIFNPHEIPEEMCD", "assay": "Competitive inhibition of human recombinant CRM1 at 2 uM incubated for 2 hrs in presence of 3-(1-((E)-3-(methoxyamino)-3-oxo-2-(pyrimidin-5-yl)prop-1-en-1-yl)-1H-1,2,4-triazol-3-yl)-5-(trifluoromethyl)phenyl 3-(5-((3aS,4S,6aR)-2-oxohexahydro-1H-thieno[3,4-d]imidazol-4-yl)pentanamido)propanoate by pull down based Western blot analysis"}, "[14]": {"assay": "Half life in male Sprague-Dawley rat at 10 mg/kg, po measured upto 30 hrs by LC-MS/MS analysis", "format": "ADME, organism-based", "conditions": "in vivo"}, "[15]": {"biological_target": "Exportin-1 (Homo sapiens) (UniProt O14980)", "assay": "Reversible competitive inhibition of human recombinant CRM1 at 2 uM incubated for 2 hrs in presence of 3-(1-((E)-3-(methoxyamino)-3-oxo-2-(pyrimidin-5-yl)prop-1-en-1-yl)-1H-1,2,4-triazol-3-yl)-5-(trifluoromethyl)phenyl 3-(5-((3aS,4S,6aR)-2-oxohexahydro-1H-thieno[3,4-d]imidazol-4-yl)pentanamido)propanoate by pull down based Western blot analysis"}, "RPMI-8226": {"tested_on": "RPMI-8226", "assay": "Antiproliferative activity against human RPMI-8226 cells assessed as inhibition of cell growth incubated for 72 hrs by celltiter-glo assay", "format": "functional, cell-based", "conditions": "RPMI-8226, 72 h"}, "[16]": {"assay": "Cmax in male Sprague-Dawley rat at 15 mg/kg, po measured upto 30 hrs by LC-MS/MS analysis", "format": "ADME, organism-based", "conditions": "in vivo"}, "[17]": {"assay": "AUC (0 to t) in male Sprague-Dawley rat at 15 mg/kg, po measured upto 30 hrs by LC-MS/MS analysis", "format": "ADME, organism-based", "conditions": "in vivo"}, "MM1.S [18]": {"tested_on": "MM1.S", "assay": "Induction of apoptosis in human MM1.S cells at 0.5 to 1 uM incubated for 48 hrs by Annexin V-FITC/PI staining based flow cytometry analysis", "format": "functional, cell-based", "conditions": "dose 0.5-1 µM"}, "[19]": {"biological_target": "Exportin-1 (Homo sapiens) (UniProt O14980)", "assay": "Reversible binding affinity to CRM1 in human U2OS cells incubated for 4 hrs by DAPI staining based fluorescence microscopic analysis", "format": "cell-based"}, "[20]": {"assay": "Oral bioavailability in male Sprague-Dawley rat at 15 mg/kg measured upto 30 hrs by LC-MS/MS analysis", "format": "ADME, organism-based", "conditions": "in vivo"}, "[21]": {"assay": "Tmax in male Sprague-Dawley rat at 30 mg/kg, po measured upto 30 hrs by LC-MS/MS analysis", "format": "ADME, organism-based", "conditions": "in vivo"}, "KMS-11": {"tested_on": "KMS-11", "assay": "Antiproliferative activity against human KMS-11 cells assessed as inhibition of cell growth incubated for 72 hrs by celltiter-glo assay", "format": "functional, cell-based", "conditions": "KMS-11, 72 h"}, "[22]": {"biological_target": "Exportin-1 (Homo sapiens) (UniProt O14980)", "assay": "Inhibition of CRM1 in human MM1.S cells assessed as accumulation of IkappaB protein level at 0.5 to 1 uM incubated for 24 hrs by Western blot analysis", "format": "cell-based", "conditions": "dose 0.5-1 µM"}, "[23]": {"assay": "AUC (0 to t) in male Sprague-Dawley rat at 10 mg/kg, po measured upto 30 hrs by LC-MS/MS analysis", "format": "ADME, organism-based", "conditions": "in vivo"}, "[24]": {"assay": "Half life in male Sprague-Dawley rat at 2 mg/kg, iv measured upto 30 hrs by LC-MS/MS analysis", "format": "ADME, organism-based", "conditions": "in vivo"}, "[25]": {"assay": "Toxicity in BALB/c mouse assessed as organ abnormalities at 30 to 60 mg/kg, po administered once daily for 21 days", "format": "organism-based", "conditions": "in vivo, 504 h, dose 30-60 mg/kg, time 21 day"}, "MM1.S [26]": {"tested_on": "MM1.S", "assay": "Antitumor activity against human MM1.S cells xenografted in NOD-SCID mouse assessed as tumor growth inhibition at 15 mg/kg, po qd measured upto 21 days", "format": "functional", "conditions": "504 h, time <= 21 day, read-out: TGI"}, "[27]": {"assay": "Toxicity in NOD-SCID mouse assessed as reduction in intact nuclei in tumor at 60 mg/kg, po measured every 2 days for 21 days by H and E staining based analysis", "format": "organism-based", "conditions": "in vivo, 504 h, time 21 day"}, "[28]": {"assay": "Toxicity in NOD-SCID mouse assessed as loss of crypt depth in intestine at 15 to 60 mg/kg, po measured every 2 days for 21 days by H and E staining based analysis", "format": "organism-based", "conditions": "in vivo, 504 h, dose 15-60 mg/kg, time 21 day"}, "[29]": {"assay": "Tmax in male Sprague-Dawley rat at 10 mg/kg, po measured upto 30 hrs by LC-MS/MS analysis", "format": "ADME, organism-based", "conditions": "in vivo"}}, "note": "The source made the active and inactive calls. The rule behind the calls is not given here.", "data": [{"smiles": "CONC(=O)/C(=C/n1cnc(-c2cc(C(F)(F)F)cc(C(F)(F)F)c2)n1)c1cncnc1", "values": [{"measurement": "IC50", "setting": "[1]", "result": 620, "unit": "nM"}, {"measurement": "IC50", "setting": "BXPC-3", "result": 3.18, "unit": "µM"}, {"measurement": "Activity", "setting": "[2]", "result": "Non-toxic"}, {"measurement": "IC50", "setting": "AN3-CA", "result": 1080, "unit": "nM"}, {"measurement": "half-life", "setting": "[3]", "result": "> 120", "unit": "min"}, {"measurement": "Activity", "setting": "MM1.S [4]", "result": "Active"}, {"measurement": "inhibition", "setting": "[5]", "result": "Active"}, {"measurement": "Activity", "setting": "[6]", "result": "Non-toxic"}, {"measurement": "microsomal CLint", "setting": "[7]", "result": 2.6, "unit": "µL/min/mg"}, {"measurement": "inhibition", "setting": "MM1.S [8]", "result": "Time-dependent-effect"}, {"measurement": "Activity", "setting": "[9]", "result": "Non-toxic"}, {"measurement": "Activity", "setting": "[10]", "result": "Non-toxic"}, {"measurement": "IC50", "setting": "LoVo", "result": 2040, "unit": "nM"}, {"measurement": "Activity", "setting": "[11]", "result": "Non-toxic"}, {"measurement": "half-life", "setting": "[12]", "result": "> 120", "unit": "min"}, {"measurement": "TGI", "setting": "HCT-116", "result": "Active"}, {"measurement": "IC50", "setting": "ARH-77", "result": 304, "unit": "nM"}, {"measurement": "inhibition", "setting": "[13]", "result": "Active"}, {"measurement": "half-life", "setting": "[14]", "result": 336, "unit": "min"}, {"measurement": "inhibition", "setting": "[15]", "result": "Active"}, {"measurement": "IC50", "setting": "RPMI-8226", "result": 304, "unit": "nM"}, {"measurement": "Cmax", "setting": "[16]", "result": 793, "unit": "ng/mL"}, {"measurement": "AUC(0-t) at 30 h", "setting": "[17]", "result": 5080, "unit": "ng·h/mL"}, {"measurement": "Activity", "setting": "MM1.S [18]", "result": "Active"}, {"measurement": "Activity", "setting": "[19]", "result": "Active"}, {"measurement": "bioavailability", "setting": "[20]", "result": 52.1, "unit": "%"}, {"measurement": "Tmax", "setting": "[21]", "result": 18, "unit": "min"}, {"measurement": "IC50", "setting": "KMS-11", "result": 739, "unit": "nM"}, {"measurement": "Activity", "setting": "[22]", "result": "Active"}, {"measurement": "AUC(0-t) at 30 h", "setting": "[23]", "result": 3610, "unit": "ng·h/mL"}, {"measurement": "half-life", "setting": "[24]", "result": 252, "unit": "min"}, {"measurement": "Activity", "setting": "[25]", "result": "Non-toxic"}, {"measurement": "inhibition in vivo at 15 mg/kg", "setting": "MM1.S [26]", "result": 80.5, "unit": "%"}, {"measurement": "Activity", "setting": "[27]", "result": "Non-toxic"}, {"measurement": "Activity", "setting": "[28]", "result": "Non-toxic"}, {"measurement": "Tmax", "setting": "[29]", "result": 18, "unit": "min"}]}]}
